According to patent US20150141251A1, “SPONTANEOUS SELF-FORMING MIXED SURFACTANT NANO-EMULSIONS FROM WATER INSOLUBLE PESTICIDES IN MIXED WATER MISCIBLE SOLVENTS” (priority 2012, published 2015):

Test system: Alfalfa weevil
Assay: Alfalfa weevil control on sprayed Alfalfa plots
Format: in vivo
Settings: Treatment No. 2, 0.022 lb active ingredient per acre
Description: The relative effect of pesticidal formulation of the present disclosure was studied for controlling Alfalfa weevil on Alfalfa:
To study the effect of formulation of the present disclosure, four 10×20 sq.ft plots of Alfalfa were set up for each treatment and 20 gal/acre test solution was sprayed with hand sprayer. Then 10 stems of Alfalfa per replication were collected randomly after 4 days and 7 days of treatment. The stems so collected were shaken into 1 gal white container. The evaluation results obtained are provided herein Table No. 5.

Compound: CC1(C)C(C=C(Cl)Cl)C1C(=O)OC(C#N)c1ccc(F)c(Oc2ccccc2)c1 (stereo not drawn) [Beta- CYFLUTHRIN]
- Alfalfa weevil larvae/10 stems (Mean ± SE) (4 Days after treatment): 0.3 ± 0.3 larvae/10 stems
- Alfalfa weevil larvae/10 stems (Mean ± SE) (7 Days after treatment): 0.0 ± 0.0 larvae/10 stems
